What was measured:
Test in all cases: relative viability (nuclei count vs DMSO), 5 days (fraction); higher = more cells survive
[1] = compound: O=C(O)c1ccc2c(c1)nc(Nc1cccc(Cl)c1)c1ccncc12 [Silmitasertib] + N=C(N)NC(=N)NCCc1ccccc1 [Phenformin] (partner 250 µM)
How it was run: (§1)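 Values are medians from duplicate plates. Each reflects relative viability, defined as the nuclei count of treated wells over that of vehicle wells. Lung cancer cell lines in 1536-well plates were pin-tool dosed one day after seeding with one drug alone or with a fixed anchor-drug dose plus five library-drug doses (not always all listed) in √10 steps, then fixed, stained and imaged at 4× after 5 days.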

[2] = compound: O=C(O)c1ccc2c(c1)nc(Nc1cccc(Cl)c1)c1ccncc12 [Silmitasertib] + C[C@@H](Oc1cc(-c2cnn(C3CCNCC3)c2)cnc1N)c1c(Cl)ccc(F)c1Cl [Crizotinib] (partner 1 µM)
How it was run: as §1

[3] = compound: O=C(O)c1ccc2c(c1)nc(Nc1cccc(Cl)c1)c1ccncc12 [Silmitasertib] + C[C@]1(O)C[C@@H](c2nc(-c3ccc4ccc(-c5ccccc5)nc4c3)c3c(N)nccn32)C1 [Linsitinib] (partner 1 µM)
How it was run: as §1

[4] = compound: O=C(O)c1ccc2c(c1)nc(Nc1cccc(Cl)c1)c1ccncc12 [Silmitasertib] + COc1cc2c(Oc3ccc(NC(=O)C4(C(=O)Nc5ccc(F)cc5)CC4)cc3F)ccnc2cc1OCCCN1CCOCC1 [Foretinib] (partner 0.25 µM)
How it was run: as §1

[5] = compound: O=C(O)c1ccc2c(c1)nc(Nc1cccc(Cl)c1)c1ccncc12 [Silmitasertib]
How it was run: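 Five library-drug doses, separated by factors of √10, were pinned into 1536-well plates holding lung cancer cell lines after an overnight stay at 37 °C. Cells were fixed, permeabilised and Hoechst-stained in one step after 5 days without medium change, then imaged at 4×. Viability compares treated-well with vehicle-well nuclei, counted in MetaXpress, as a median across plates. Passing plates had control CV below 25% and at least one doubling.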

| Cell Line | relative viability ([1]; first compound 0.04 µM) | relative viability ([1]; first compound 0.4 µM) | relative viability ([1]; first compound 1.265 µM) | relative viability ([1]; first compound 4 µM) | relative viability ([2]; first compound 0.04 µM) | relative viability ([2]; first compound 0.4 µM) | relative viability ([2]; first compound 1.265 µM) | relative viability ([2]; first compound 4 µM) | relative viability ([3]; first compound 0.04 µM) | relative viability ([3]; first compound 0.4 µM) | relative viability ([3]; first compound 1.265 µM) | relative viability ([3]; first compound 4 µM) | relative viability ([4]; first compound 0.04 µM) | relative viability ([4]; first compound 0.4 µM) | relative viability ([4]; first compound 1.265 µM) | relative viability ([4]; first compound 4 µM) | relative viability ([5]; 0.04 µM) | relative viability ([5]; 0.4 µM) | relative viability ([5]; 1.265 µM) | relative viability ([5]; 4 µM) |
| --- | --- | --- | --- | --- | --- | --- | --- | --- | --- | --- | --- | --- | --- | --- | --- | --- | --- | --- | --- | --- |
| NCI-H647 | 0.513 | 0.303 | 0.477 | 0.189 | 1.26 | 1.1 | 0.932 | 0.48 | 1.37 | 1.24 | 1.05 | 0.663 | 1.21 | 1.04 | 0.874 | 1.06 | 0.968 | 0.758 | 0.723 | 0.498 |
| NCI-H2009 | 0.542 | 0.487 | 0.374 | 0.312 | 1.09 | 1.04 | 1.1 | 0.97 | 1.27 | 1.2 | 1.16 | 0.77 | 1.34 | 1.16 | 1.13 | 0.897 | 1.05 | 0.878 | 0.85 | 0.608 |
| EPLC-272H | 0.399 | – | 0.23 | 0.088 | 0.992 | – | 0.469 | 0.407 | 1.31 | – | 0.84 | 0.862 | 0.687 | – | 0.321 | 0.219 | 1.25 | – | 0.807 | 0.154 |
| NCI-H520 | 0.677 | 0.492 | 0.605 | 0.429 | 0.821 | 0.728 | 0.792 | 0.612 | 1.05 | 1.17 | 1.04 | 0.785 | 0.742 | 1 | 0.934 | 0.711 | 1.11 | 0.835 | 0.887 | 0.802 |
| NCI-H2405 | 0.435 | 0.34 | 0.34 | 0.301 | 0.822 | 0.692 | 0.745 | 0.803 | 1.16 | 0.783 | 0.856 | 0.887 | 1.02 | 0.887 | 0.967 | 0.964 | 1.24 | 0.831 | 0.883 | 0.81 |
| NCI-H2085 | 0.761 | – | 0.675 | 0.597 | 0.871 | 0.777 | 0.806 | 0.77 | 0.95 | 0.8 | 0.828 | 0.806 | 0.918 | – | 0.952 | 0.861 | 1.03 | 0.779 | 0.941 | 0.902 |
| NCI-H322M | 0.783 | 0.761 | 0.603 | 0.384 | 0.878 | 0.662 | 0.511 | 0.281 | 0.868 | 0.809 | 0.62 | 0.453 | 1.01 | 0.836 | 0.623 | 0.544 | 1.08 | 0.882 | 0.826 | 0.486 |
| NCI-H1944 | 0.21 | 0.211 | 0.22 | 0.186 | 1.1 | 0.856 | 0.965 | 1.03 | 1.17 | 1.15 | 0.968 | 1.25 | 0.924 | 0.768 | 0.92 | 1 | 1.01 | 0.748 | 0.994 | 0.936 |
| LC-2-ad | 0.645 | 0.59 | 0.488 | 0.314 | 0.421 | 0.423 | 0.37 | 0.417 | 0.731 | 0.881 | 0.836 | 0.918 | 1.14 | 0.891 | 0.898 | 0.827 | 1.13 | 0.828 | 0.976 | 0.523 |
| NCI-H358 | 0.371 | 0.272 | 0.325 | 0.225 | 0.616 | 0.47 | 0.493 | 0.407 | 0.902 | 0.799 | 0.585 | 0.607 | 0.876 | 0.573 | 0.653 | 0.474 | 1.13 | 0.757 | 0.744 | 0.667 |
| NCI-H2170 | 0.408 | 0.34 | 0.406 | 0.421 | 1.22 | 0.958 | 0.863 | 1.15 | – | – | – | – | 1.01 | 0.881 | 0.916 | 1.01 | 1.02 | 0.712 | 0.932 | 0.96 |
| A-427 | 0.365 | – | 0.297 | 0.156 | 0.888 | – | 0.805 | 0.63 | 1.11 | – | 1.28 | 1.04 | 1.1 | – | 1.13 | 0.869 | 1.07 | – | 1.03 | 0.396 |
| NCI-H1666 | 0.571 | 0.582 | 0.607 | 0.511 | 0.918 | 0.787 | 0.691 | 0.508 | 0.919 | 0.571 | 0.682 | 0.536 | 0.954 | 0.964 | 0.693 | 0.6 | 1.05 | 0.834 | 0.745 | 0.692 |
| LOU-NH91 | 0.812 | 0.617 | 0.584 | 0.423 | 0.755 | 0.585 | 0.676 | 0.683 | 1.11 | 0.859 | 0.796 | 0.754 | 0.948 | 0.786 | 0.859 | 0.827 | 1.12 | 0.917 | 0.806 | 0.582 |
| ABC-1 | 0.298 | 0.214 | 0.179 | 0.201 | 1.27 | 1 | 0.516 | 0.445 | 0.788 | 1.13 | 0.523 | 0.294 | 1.07 | 0.83 | 0.457 | 0.367 | 1.37 | 0.773 | 0.656 | 0.465 |
| NCI-H1651 | 0.339 | 0.321 | 0.378 | 0.363 | 0.88 | 0.727 | 0.834 | 0.924 | 0.944 | 1 | 0.901 | 0.942 | 0.951 | 0.892 | 0.812 | 0.732 | 0.974 | 0.991 | 1.02 | 0.989 |
